Source: ChEMBL document CHEMBL5055668 (J Med Chem, 2021)
The source made the active and inactive calls.

Experiments:
MC-38 [1] = experiment: Antiproliferative activity against mouse MC38 cells assessed as reduction in cell viability at 10 to 100 nM incubated for 24 hrs by CCK-8 assay; type: functional, cell-based; conditions: dose 10-100 nM
BMDM [2] = experiment: (§1) Induction of conversion of M2-macrophages to the M1 phenotype in CM of MC38 cells treated C57BL/6 mouse BMDM cells assessed as down regulation of Arg1 mRNA expression at 30 to 100 nM preincubated with culture medium of MC38 cells for 24 hrs followed by compound addition and measured after 24 hrs by qPCR analysis; type: functional, cell-based; conditions: dose 30-100 nM
THP-1 [3] = experiment: Induction of conversion of M2-macrophages to the M1 phenotype in CM of HCT116 cells treated […]-differentiated human THP-1 cells assessed as upregulation of Il12 mRNA expression at 30 to 100 nM incubated for 24 hrs by qPCR analysis; type: functional, cell-based; conditions: dose 30-100 nM
MC-38 [4] = experiment: Antitumor activity against mouse MC38 cells allografted in C57BL6 mouse assessed as decrease in Il10 mRNA expression at 10 to 20 mg/kg, po administered daily for 2 weeks by qPCR analysis; type: functional, organism-based; conditions: dose 10-20 mg/kg
MC-38 [5] = experiment: Antitumor activity against mouse MC38 cells allografted in C57BL6 mouse assessed as reduction in AKT phosphorylation in tumor tissue at 5 to 10 mg/kg, po administered daily for 2 weeks by Western blot analysis; type: functional, organism-based; conditions: dose 5-10 mg/kg
HCT-116 [6] = experiment: Antiproliferative activity against human HCT-116 cells assessed as reduction in cell viability at 10 to 100 nM incubated for 24 hrs by CCK-8 assay; type: functional, cell-based; conditions: dose 10-100 nM
Mus musculus = experiment: Toxicity in C57BL/6 mouse allografted with mouse MC38 cells assessed as liver damage at 5 to 20 mg/kg, po administered every day for 2 weeks by histopathological analysis; type: organism-based, MC-38; conditions: in vivo, 336 h, dose 5-20 mg/kg
[7] = molecular target: T1, Macrophage colony-stimulating factor 1 receptor (Mus musculus) (UniProt P09581); experiment: Binding affinity to CSF-1R in C57BL/6 mouse BMDM cells at 100 nM after 1 hr by SIP assay; type: cell-based
T1 sequence (whole entry): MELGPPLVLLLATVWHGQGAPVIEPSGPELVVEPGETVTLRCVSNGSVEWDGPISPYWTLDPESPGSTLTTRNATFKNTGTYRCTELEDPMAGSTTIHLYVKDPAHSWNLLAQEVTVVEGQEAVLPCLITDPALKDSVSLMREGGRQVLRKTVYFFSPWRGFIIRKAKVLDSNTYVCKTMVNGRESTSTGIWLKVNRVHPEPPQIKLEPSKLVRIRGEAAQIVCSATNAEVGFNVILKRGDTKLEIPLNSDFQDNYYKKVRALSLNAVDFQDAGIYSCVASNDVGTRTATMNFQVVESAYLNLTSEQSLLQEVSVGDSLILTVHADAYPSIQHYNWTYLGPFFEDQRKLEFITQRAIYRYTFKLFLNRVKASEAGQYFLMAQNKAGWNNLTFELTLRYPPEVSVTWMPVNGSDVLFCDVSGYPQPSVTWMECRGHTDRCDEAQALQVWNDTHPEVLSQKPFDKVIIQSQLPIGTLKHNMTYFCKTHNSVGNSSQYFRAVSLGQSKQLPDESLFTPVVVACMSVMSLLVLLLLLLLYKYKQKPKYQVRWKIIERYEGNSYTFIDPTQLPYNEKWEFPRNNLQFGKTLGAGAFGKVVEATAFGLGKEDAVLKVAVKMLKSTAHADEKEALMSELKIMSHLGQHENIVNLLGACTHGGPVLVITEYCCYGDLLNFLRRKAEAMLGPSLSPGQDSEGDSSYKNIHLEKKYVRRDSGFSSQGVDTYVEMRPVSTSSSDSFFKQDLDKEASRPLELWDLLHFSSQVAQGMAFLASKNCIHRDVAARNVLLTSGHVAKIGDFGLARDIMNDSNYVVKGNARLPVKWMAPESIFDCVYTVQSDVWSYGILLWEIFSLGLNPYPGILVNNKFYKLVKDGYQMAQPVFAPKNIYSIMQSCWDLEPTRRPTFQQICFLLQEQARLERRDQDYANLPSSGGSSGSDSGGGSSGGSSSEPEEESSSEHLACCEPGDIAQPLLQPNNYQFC

HCT-116 [8] = experiment: Antitumor activity against human HCT-116 cells xenografted in nude BALB/c mouse assessed as reduction in tumor weight at 5 to 20 mg/kg, po administered daily for 2 weeks; type: functional, organism-based; conditions: dose 5-20 mg/kg
MC-38 [9] = experiment: Antitumor activity against mouse MC38 cells allografted in C57BL6 mouse assessed as decrease in chil3 mRNA expression at 10 to 20 mg/kg, po administered daily for 2 weeks by qPCR analysis; type: functional, organism-based; conditions: dose 10-20 mg/kg
THP-1 [10] = experiment: Induction of conversion of M2-macrophages to the M1 phenotype in CM of HCT116 cells treated […]-differentiated human THP-1 cells assessed as down regulation of Vegf mRNA expression at 30 to 100 nM incubated for 24 hrs by qPCR analysis; type: functional, cell-based; conditions: dose 30-100 nM
[11] = molecular target: T1, Macrophage colony-stimulating factor 1 receptor (Mus musculus); experiment: Inhibition of CSF-1R signaling pathway in C57BL/6 mouse BMDM cells assessed as reduction in M-CSF induced AKT phosphorylation preincubated for 12 hrs followed by M-CSF stimulation for 30 mins by Western blot analysis; type: cell-based
THP-1 [12] = experiment: Induction of conversion of M2-macrophages to the M1 phenotype in CM of HCT116 cells treated […]-differentiated human THP-1 cells assessed as upregulation of Il6 mRNA expression at 30 to 100 nM incubated for 24 hrs by qPCR analysis; type: functional, cell-based; conditions: dose 30-100 nM
MC-38 [13] = experiment: Antiproliferative activity against mouse MC38 cells cultured with culture medium of M2-macrophages assessed as reduction in cell viability at 10 to 100 nM incubated for 24 hrs by CCK-8 assay; type: functional, cell-based; conditions: dose 10-100 nM
MC-38 [14] = experiment: Antitumor activity against mouse MC38 cells allografted in C57BL6 mouse assessed as decrease in Arg1 mRNA expression at 10 to 20 mg/kg, po administered daily for 2 weeks by qPCR analysis; type: functional, organism-based; conditions: dose 10-20 mg/kg
[15] = molecular target: T2, Macrophage colony-stimulating factor 1 receptor (Mus musculus, UniProt P09581); experiment: Binding affinity to CSF-1R in C57BL/6 mouse BMDM cells assessed as dissociation constant by SPR assay
T2 sequence (P09581 whole entry): T1 sequence (whole entry)

BMDM [16] = experiment: as §1, with “Vegf” for “Arg1”; type: functional, cell-based; conditions: dose 30-100 nM
BMDM [17] = experiment: as §1, with “Chil3” for “Arg1”; type: functional, cell-based; conditions: dose 30-100 nM
MC-38 [18] = experiment: Antitumor activity against mouse MC38 cells allografted in po dosed C57BL6 mouse assessed as inhibition of tumor growth administered daily for 2 weeks by caliper method; type: functional, organism-based; conditions: dose 5-20 mg/kg
[19] = molecular target: T1, Macrophage colony-stimulating factor 1 receptor (Mus musculus); experiment: Inhibition of CSF-1R signaling pathway in C57BL/6 mouse BMDM cells assessed as reduction in M-CSF induced CSF-1R phosphorylation preincubated for 12 hrs followed by M-CSF stimulation for 30 mins by Western blot analysis; type: cell-based; conditions: dose 100.0 nM
BMDM [20] = experiment: as §1, with “upregulation” for “down regulation”, “[…]” for “Arg1”; type: functional, cell-based; conditions: dose 30-100 nM

Cc1[nH]c(/C=C2\C(=O)Nc3cc(NC(=O)Nc4cc(C(C)(C)C)on4)ccc32)c(C)c1NC(=O)CN1CCN(C)CC1
inactive: Activity (MC-38 [1]) | Activity (HCT-116 [6]) | Activity (HCT-116 [8])
3.4 nM: Kd [15]
Non-Toxic: Activity (Mus musculus)
active: Activity (BMDM [2]) | Activity (THP-1 [3]) | Activity (MC-38 [4]) | Activity (MC-38 [5]) | Activity [7] | Activity (MC-38 [9]) | Activity (THP-1 [10]) | inhibition [11] Dose-dependent effect | Activity (THP-1 [12]) | Activity (MC-38 [13]) | Activity (MC-38 [14]) | Activity (BMDM [16]) | Activity (BMDM [17]) | Activity (MC-38 [18]) Dose-dependent effect | inhibition [19] Dose-dependent effect | Activity (BMDM [20])
